In ChEMBL document CHEMBL3885881, “DrugMatrix”:

Species on record: Rattus norvegicus
Assay: DrugMatrix - Regimen: Daily Repeat
Type: toxicity, organism-based, Sprague-Dawley
Design: regimen Daily Repeat, gender Male, age 6-8 weeks
Settings: in vivo, po, route oral GAVAGE, vehicle 100 % WATER; for ABSOLUTE BASOPHIL / ABSOLUTE EOSINOPHIL / ABSOLUTE LYMPHOCYTE / ABSOLUTE MONOCYTE / ABSOLUTE SEGMENTED NEUTROPHIL / BASOPHIL / EOSINOPHIL / ERYTHROCYTE COUNT / HEMATOCRIT / HEMOGLOBIN / LEUKOCYTE COUNT / LYMPHOCYTE / MEAN CORPUSCULAR HEMOGLOBIN / MEAN CORPUSCULAR HEMOGLOBIN CONCENTRATION / MEAN CORPUSCULAR VOLUME / MONOCYTE / NEUTROPHIL / NUCLEATED RED BLOOD CELLS / PLATELET COUNT: tissue Blood; for ALANINE AMINOTRANSFERASE / ALBUMIN / ALKALINE PHOSPHATASE / ASPARTATE AMINOTRANSFERASE / BLOOD UREA NITROGEN / CARBON DIOXIDE / CHLORIDE / CHOLESTEROL / CREATINE PHOSPHOKINASE / CREATININE / GLUCOSE / LACTATE DEHYDROGENASE / LIPASE / PHOSPHORUS / POTASSIUM / SODIUM / TOTAL BILIRUBIN / TOTAL PROTEIN / URIC ACID: tissue Plasma
[1] = 100 mg/kg, 120 h, dose level Low, time 5 day
[2] = 2500 mg/kg, 72 h, dose level High, time 3 day
[3] = 2500 mg/kg, 120 h, dose level High, time 5 day

## NCC1(CC(=O)O)CCCCC1 [GABAPENTIN]
[1]
  ABSOLUTE BASOPHIL: 0 CELLS/uL
  ABSOLUTE EOSINOPHIL: 0 CELLS/uL
  ABSOLUTE LYMPHOCYTE: 13861.67 CELLS/uL
  ABSOLUTE MONOCYTE: 159 CELLS/uL
  ABSOLUTE SEGMENTED NEUTROPHIL: 1246 CELLS/uL
  BASOPHIL: 0%
  EOSINOPHIL: 0%
  ERYTHROCYTE COUNT: 5.64 x10E6/uL
  HEMATOCRIT: 35.7%
  HEMOGLOBIN: 14.27 G/DL
  LEUKOCYTE COUNT: 15.27 x10E3/uL
  LYMPHOCYTE: 91%
  MEAN CORPUSCULAR HEMOGLOBIN: 25.33 pg
  MEAN CORPUSCULAR HEMOGLOBIN CONCENTRATION: 39.97 G/DL
  MEAN CORPUSCULAR VOLUME: 63.33 fL
  MONOCYTE: 1%
  NEUTROPHIL: 8%
  NUCLEATED RED BLOOD CELLS: 0 /100WBC
  PLATELET COUNT: 1093 x10E3/uL
  ALANINE AMINOTRANSFERASE: 54.67 u/L
  ALBUMIN: 4.37 G/DL
  ALKALINE PHOSPHATASE: 380.67 u/L
  ASPARTATE AMINOTRANSFERASE: 86 u/L
  BLOOD UREA NITROGEN: 15.67 mg/dL
  CARBON DIOXIDE: 31.33 mmol/L
  CHLORIDE: 101.67 MEQ/L
  CHOLESTEROL: 72.33 mg/dL
  CREATINE PHOSPHOKINASE: 410.33 u/L
  CREATININE: 0.16 mg/dL
  GLUCOSE: 172.67 mg/dL
  LACTATE DEHYDROGENASE: 185.67 u/L
  LIPASE: 9.67 u/L
  PHOSPHORUS: 11.93 mg/dL
  POTASSIUM: 6 MEQ/L
  SODIUM: 144.93 MEQ/L
  TOTAL BILIRUBIN: 0.1 mg/dL
  TOTAL PROTEIN: 6.07 G/DL
  URIC ACID: 1.23 mg/dL
[2]
  ABSOLUTE BASOPHIL: 0 CELLS/uL
  ABSOLUTE EOSINOPHIL: 0 CELLS/uL
  ABSOLUTE LYMPHOCYTE: 17008 CELLS/uL
  ABSOLUTE MONOCYTE: 0 CELLS/uL
  ABSOLUTE SEGMENTED NEUTROPHIL: 1925.33 CELLS/uL
  BASOPHIL: 0%
  EOSINOPHIL: 0%
  ERYTHROCYTE COUNT: 5.55 x10E6/uL
  HEMATOCRIT: 36.63%
  HEMOGLOBIN: 14.27 G/DL
  LEUKOCYTE COUNT: 18.93 x10E3/uL
  LYMPHOCYTE: 90%
  MEAN CORPUSCULAR HEMOGLOBIN: 25.7 pg
  MEAN CORPUSCULAR HEMOGLOBIN CONCENTRATION: 38.93 G/DL
  MEAN CORPUSCULAR VOLUME: 66.03 fL
  MONOCYTE: 0%
  NEUTROPHIL: 10%
  NUCLEATED RED BLOOD CELLS: 0.33 /100WBC
  PLATELET COUNT: 1357 x10E3/uL
  ALANINE AMINOTRANSFERASE: 70.67 u/L
  ALBUMIN: 4.47 G/DL
  ALKALINE PHOSPHATASE: 324.33 u/L
  ASPARTATE AMINOTRANSFERASE: 79.67 u/L
  BLOOD UREA NITROGEN: 15 mg/dL
  CARBON DIOXIDE: 30.67 mmol/L
  CHLORIDE: 99.67 MEQ/L
  CHOLESTEROL: 90 mg/dL
  CREATINE PHOSPHOKINASE: 203.33 u/L
  CREATININE: 0.15 mg/dL
  GLUCOSE: 164.33 mg/dL
  LACTATE DEHYDROGENASE: 162 u/L
  LIPASE: 11.33 u/L
  PHOSPHORUS: 13.37 mg/dL
  POTASSIUM: 6.75 MEQ/L
  SODIUM: 143.83 MEQ/L
  TOTAL BILIRUBIN: 0.1 mg/dL
  TOTAL PROTEIN: 6.13 G/DL
  URIC ACID: 2.23 mg/dL
[3]
  ABSOLUTE BASOPHIL: 0 CELLS/uL
  ABSOLUTE EOSINOPHIL: 0 CELLS/uL
  ABSOLUTE LYMPHOCYTE: 12458 CELLS/uL
  ABSOLUTE MONOCYTE: 100 CELLS/uL
  ABSOLUTE SEGMENTED NEUTROPHIL: 1842 CELLS/uL
  BASOPHIL: 0%
  EOSINOPHIL: 0%
  ERYTHROCYTE COUNT: 5.12 x10E6/uL
  HEMATOCRIT: 32.03%
  HEMOGLOBIN: 13.13 G/DL
  LEUKOCYTE COUNT: 14.4 x10E3/uL
  LYMPHOCYTE: 86.33%
  MEAN CORPUSCULAR HEMOGLOBIN: 25.67 pg
  MEAN CORPUSCULAR HEMOGLOBIN CONCENTRATION: 41 G/DL
  MEAN CORPUSCULAR VOLUME: 62.57 fL
  MONOCYTE: 0.67%
  NEUTROPHIL: 13%
  NUCLEATED RED BLOOD CELLS: 0 /100WBC
  PLATELET COUNT: 1217 x10E3/uL
  ALANINE AMINOTRANSFERASE: 71.67 u/L
  ALBUMIN: 4.3 G/DL
  ALKALINE PHOSPHATASE: 373 u/L
  ASPARTATE AMINOTRANSFERASE: 84.67 u/L
  BLOOD UREA NITROGEN: 19.67 mg/dL
  CARBON DIOXIDE: 28.67 mmol/L
  CHLORIDE: 102.33 MEQ/L
  CHOLESTEROL: 64 mg/dL
  CREATINE PHOSPHOKINASE: 156 u/L
  CREATININE: 0.17 mg/dL
  GLUCOSE: 148.33 mg/dL
  LACTATE DEHYDROGENASE: 96.67 u/L
  LIPASE: 8 u/L
  PHOSPHORUS: 11.7 mg/dL
  POTASSIUM: 6.37 MEQ/L
  SODIUM: 144.6 MEQ/L
  TOTAL BILIRUBIN: 0.17 mg/dL
  TOTAL PROTEIN: 6.03 G/DL
  URIC ACID: 1.33 mg/dL
